{"source": "paper PMC8370201", "about": "“Amaryllidaceae Alkaloid Cherylline Inhibits the Replication of Dengue and Zika Viruses” (Antimicrobial Agents and Chemotherapy, 2021)", "key": {"DENVR2A [1]": {"test_system": "DENVR2A", "experiment": "microbe, parasite or virus in culture", "conditions": "Dengue virus, Huh7.5, read-out: EC50 (μM) for DENVR2A"}, "DENVGFP [2]": {"test_system": "DENVGFP", "experiment": "DENVGFP reporter virus infection of Huh7 cells (flow cytometry / microscopy)", "conditions": "Huh7, treated 2 h before DENVGFP MOI 0.15, 72 hpi, at the chosen concentration"}, "[3]": {"experiment": "Cell viability (ATP, Cell-Titer GLO) in Huh7.5 cells", "format": "cell-based", "conditions": "human, Huh7.5 cells; Huh7.5, ATP, 48 h posttreatment; read-out: CC50", "procedure": "(§1) Where indicated for Huh7.5 and Vero E6 cells and PBMCs, cell viability was measured by monitoring of cellular ATP levels using the Cell-Titer GLO assay kit (Promega). Briefly, 10× 10^3 to 20 × 10^3 cells in 50 to 100 μl were seeded in 48-well or 96-well plates and cultured overnight. AAs were added at the designated concentrations for 24 or 48 h, as specified in the text. Then, 50 to 100 μl of room temperature Cell-Titer GLO reagent was added in each well to room temperature-equilibrated cell plates. Plates were rocked for 2 min and rested for 10 min, and the luminescence signal was measured using a microplate spectrophotometer (Biotek Synergy H1 or Tecan Spark multimode microplate reader). Viability was expressed as a fold change calculated using the value of DMSO-treated cells at each concentration; for each AA and CC50, values were determined."}, "West Nile virus NS5": {"test_system": "West Nile virus NS5", "parameters": "method as in PMID 19062063", "conditions": "cited from earlier work"}, "ZIKV NS5 RdRp": {"test_system": "ZIKV NS5 RdRp", "parameters": "method as in PMID 32452420", "conditions": "100 μM; cited from earlier work"}, "DENVR2A [4]": {"test_system": "DENVR2A", "conditions": "CC50/EC50, Huh7.5"}, "ZIKVR2A [5]": {"test_system": "ZIKVR2A", "conditions": "CC50/EC50, Huh7.5"}, "Huh7 cells": {"test_system": "Huh7 cells", "experiment": "XTT cytotoxicity assay in Huh7 cells", "format": "cell-based, human", "conditions": "0.4 to 400 μM, 72 hours", "procedure": "Cytotoxicity properties were titrated by metabolism monitoring using the XTT [2,3-bis-(2-methoxy-4-nitro-5-sulfophenyl)-2H-tetrazolium-5-carboxanilide] assay kit (Roche, Millipore Sigma), as described before ([24]). Briefly, Huh7 cells were seeded at 10 × 10^3 cells per well in 96-well plates. […] After 72 h of incubation, medium was replaced by phenol-free DMEM (Wisent) containing 0.3 mg/ml XTT, and cells were incubated for 4 h. Absorbance was measured at 450nm using a microplate spectrophotometer (Synergy H1, Biotek). Treatment conditions with 0.5% DMSO were used as the reference control. The percentage of cell viability was calculated at each concentration."}, "ZIKVR2A [6]": {"test_system": "ZIKVR2A", "experiment": "microbe, parasite or virus in culture", "conditions": "Zika virus, Huh7.5, read-out: EC50 (μM) for ZIKVR2A, Huh7.5 cells, luciferase at 48 hpi"}, "PBMCs": {"test_system": "PBMCs", "experiment": "Cytotoxicity in PBMCs (ATP)", "format": "cell-based, human", "conditions": "48 h posttreatment, cherylline 30 μM", "procedure": "as §1"}, "DENV2 16881s": {"test_system": "DENV2 16881s", "experiment": "Plaque assay, infectious titers of WT DENV2 16881s from Huh7.5 cells", "format": "cell-based, dengue virus (DENV)", "conditions": "AAs 50 μM, treated 2 hpi, supernatant 48 h later", "procedure": "Huh7.5 cells were infected with DENV 16881s, ZIKV H/PF/2013, or ZIKV MR766 (MOI, 0.1) or left uninfected. […] Supernatants were harvested 2 days pi, and PFU were determined by plaque assay on VeroE6 cells. Cells incubated overnight (2 × 10^5 cells/well in 24-well plates) were infected with 10-fold serially diluted virus-containing supernatants for 2 h at 37°C. Inoculum was then replaced with MEM (Life Technologies) containing 1.5% carboxymethylcellulose (Millipore-Sigma). ZIKV- and DENV-infected cells were incubated for 5 and 7 days, respectively. One volume of 10% formaldehyde was added to the cells for fixation. Two hours later, cells were washed with tap water and stained with a 1% crystal violet/10% ethanol solution for 30 min. Wells were rinsed with tap water, and the number of plaques were counted to calculate virus titers."}, "DENVGFP [7]": {"test_system": "DENVGFP", "experiment": "Time-of-drug-addition and -removal assays, DENVGFP in Huh7 cells", "format": "cell-based, dengue virus (DENV)", "conditions": "NITD008 10 μM", "procedure": "For the time-of-drug-addition assay, at the time of infection, AAs were added in wells corresponding to 0 h. At 2 hpi, viral inoculum was removed from every well, and AAs were added back to wells corresponding to 0 h and 2 h. At 4, 7, 12, and 24 hpi, AAs or DMSO diluted in DMEM was added to the appropriate wells. After 72 h, cells were trypsinized and fixed in 4% formaldehyde to measure the percentage of infected cells on an FC500 MPL cytometer. Alternatively, pictures of Hoechst 33342-stained cells were acquired on an Axio Observer microscope. All assays were performed in triplicate.\nAt 2 hpi, plates were washed, and medium was replaced to remove remaining viruses in the supernatant. AAs were added back to all wells, except the ones corresponding to 2 h of treatment, in which fresh medium exclusive of any AA was added. Accordingly, after 4, 7, and 12 h of infection, the supernatant was replaced by fresh medium in corresponding wells. After 72 h of incubation, results were acquired as for the time-of-drug-addition assay. All assays were performed in triplicate."}, "ZIKV MR766": {"test_system": "ZIKV MR766", "experiment": "Plaque assay, infectious titers of WT ZIKV MR766 from Huh7.5 cells", "format": "cell-based, Zika virus (ZIKV)", "conditions": "treated 2 hpi, supernatant 48 h later"}, "ZIKV H/PF/2013": {"test_system": "ZIKV H/PF/2013", "experiment": "Plaque assay, infectious titers of WT ZIKV H/PF/2013 from Huh7.5 cells", "format": "cell-based, Zika virus (ZIKV)", "conditions": "treated 2 hpi, supernatant 48 h later"}, "DENV": {"test_system": "DENV", "parameters": "method as in PMID 20496087", "conditions": "read-out: EC50, inhibition of DENV; cited from earlier work"}}, "data": [{"smiles": "O[C@H]1[C@H]2c3cc4c(cc3CN3CCC(=C[C@@H]1O)[C@H]23)OCO4", "note": "[Lycorine, lycorine]", "values": [{"measurement": "EC50", "setting": "DENVR2A [1]", "value": 0.16, "unit": "µM"}, {"measurement": "anti-DENV activity in screening (GFP microscopy, words)", "setting": "DENVGFP [2]", "value": "sharp decrease in DENV-GFP-infected cells"}, {"measurement": "CC50 at 48 h", "setting": "[3]", "value": 14.5, "unit": "µM"}, {"measurement": "effect on West Nile virus NS5", "setting": "West Nile virus NS5", "value": "no effect"}, {"measurement": "inhibition of ZIKV NS5 RdRp activity in vitro", "setting": "ZIKV NS5 RdRp", "value": 80, "unit": "%"}, {"measurement": "SI DENVR2A (therapeutic selectivity index)", "setting": "DENVR2A [4]", "value": 90.6}, {"measurement": "SI ZIKVR2A (therapeutic selectivity index)", "setting": "ZIKVR2A [5]", "value": 35.4}, {"measurement": "cytotoxic activity of AAs", "setting": "Huh7 cells", "value": "cytotoxic"}, {"measurement": "EC50", "setting": "ZIKVR2A [6]", "value": 0.41, "unit": "µM"}]}, {"smiles": "C#C[C@@]1(O)[C@H](O)[C@@H](CO)O[C@H]1n1ccc2c(N)ncnc21", "note": "[NITD008, reference compound]", "values": [{"measurement": "cytotoxicity in PBMCs", "setting": "PBMCs", "value": "cytotoxic in PBMCs"}, {"measurement": "production of DENV infectious particles (words)", "setting": "DENV2 16881s", "value": "completely hindered the production of infectious particles"}, {"measurement": "time of drug addition: effect on DENVGFP-infected Huh7 cells 72 hpi", "setting": "DENVGFP [7]; added at 0, 2, 4, 7, or 12 hpi", "value": "abrogated GFP expression"}, {"measurement": "time of drug addition: effect on DENVGFP-infected Huh7 cells 72 hpi", "setting": "DENVGFP [7]; added at 24 hpi, cherylline 50 μM", "value": "Low levels of infection rose"}, {"measurement": "production of ZIKV MR766 infectious particles (words)", "setting": "ZIKV MR766", "value": "completely hindered the production of infectious particles"}, {"measurement": "production of ZIKV H/PF/2013 infectious particles (words)", "setting": "ZIKV H/PF/2013", "value": "completely hindered the production of infectious particles"}]}, {"smiles": "COc1cc2c(cc1OC)-c1cc3ccc(OC)c(OC)c3c[n+]1CC2", "note": "[Palmatine]", "values": [{"measurement": "EC50", "setting": "DENV", "value": 26.4, "unit": "µM"}]}]}
